Data: US11278549B2, “Method of treating obesity” (McMaster University, priority 2013, dated 2022)
Counter-ions that a name gives are not always drawn.

Legend:
5-HT2A = target: T1, 5-HT2A (Mus musculus, UniProt P35363); experiment: Fluo-4 Ca2+ signals in brown adipocytes; format: cell-based; conditions: for Ca2+ levels: brown adipocytes stained with Fluo-4, agonist treatment; for 5-HT induced Ca2+ transients: pre-treatment with antagonist
T1 construct: endogenous in cells; host or cells: immortalized murine brown adipocytes (differentiated)
From the text: Immortalized BA progenitor cells obtained from 5-HT2A KO (B6; 129-5-HT2Atm1a/Nju from Nanjing Biomedical Research Institute of Nanjing University) mice were differentiated for 9 days to produce mature BAs. Cells were then stained with fluo-4 and treated with different concentrations of 5-HT to obtain a dose response curve. Values from BAs expressing 5-HT2A used for other experiments were plotted as a WT comparison.

HFD-fed C57Bl6 mice [1] = experiment: Daily LP533401 treatment of HFD-fed C57Bl6 mice (prevention of obesity); format: in vivo
From the text: Animals. All experiments were approved by the McMaster University animal ethics committee and conducted under the Canadian guidelines for animal research. Tph1^−/− mice on C57BL/6 background were originally produced by gene mutation as described by Côté et al. (Proc Natl Acad Sci USA 100, 13525-13530 (2003)). Heterozygous (Tph1^+/−) mice were interbred to generate Tph1^−/− and Tph1^+/+ littermates. Starting at 8 weeks of age, male Tph1^−/− and Tph1^+/+ mice received either a chow (17% kcal fat; Diet 8640, Harlan Teklad, Madison, Wis.) or high-fat diet (HFD, 45% kcal fat, D12451, Research Diets; New Brunswick, N.J.) and water ad libitum for 12 weeks. For the initial chemical inhibitor studies, male C57BL/6 mice were purchased from Jackson's Laboratory at 6 weeks of age and immediately placed on the HFD described above. Starting at 8 weeks of age HFD-fed C57Bl6 mice received a daily intraperitoneal injection of the Tph1 inhibitor, LP533401 (25 mg/kg body weight, Dalton Pharma Services, Canada) dissolved in DMSO and diluted with water (5% DMSO final concentration) or equal volume of vehicle (5% DMSO in water). […] All mice were housed in SPF micro-isolator cages that were located in a room maintained at a constant temperature of 23° C. on a 12 h light/dark cycle with lights on at 0700.
(§1) Metabolic monitoring was performed in a Comprehensive Lab Animal Monitoring System (CLAMS, Columbus Instruments, OH, USA) as previously described (Sachithanandan, N., et al. Hepatology 52, 1632-1642 (2010); O'Neill, H. M., et al. Proc Natl Acad Sci 108, 16092-16097 (2011)). CL-316,243 challenge experiments were also performed using the CLAMS equipment, as described. All metabolic monitoring occurred in a room kept between 26 and 28° C. Insulin and glucose tolerance tests were performed after 16 weeks of the diet intervention in Tph1^−/− mice experiments, and after 6-10 weeks of HFD weeks in LP533401 injection experiments as previously described (Steinberg, G. R., et al. J Biol Chem 285, 37198-37209 (2010)). For serum insulin and cytokine measurements, fasting and fed blood samples were collected by retro-orbital bleed between weeks 16-18 using a non-heparinized capillary tube and insulin, adiponectin, leptin were measured as described (Watt, M. J., et al. Nature medicine 12, 541-548 (2006)). Serum cytokines (MCP-1, TNFα, and IL-6) were measured using a multiplexed bead-based immunoassay (BD Biosciences, San Jose, Calif., USA) following the manufacturer's instructions.
In vivo glucose uptake and body composition: ^18F-Fluorodeoxyglucose (FDG) was synthesized at McMaster University by the nucleophilic substitution method using an FDG synthesizing instrument (GE Healthcare, Milwaukee, Wis., USA) and a cyclotron (Siemans 20-30 gb). After an 8 h fast, mice were injected with insulin (0.5 U/kg) diluted in 0.9% physiological saline and 5 minutes later received an intravenous administration of FDG (10.8±1.2 MBq/g). After injection, the mice were maintained under conscious conditions and warmed using a heating pad. At 28 minutes post saline or insulin injection mice were anaesthetized with isoflorane and at 30 minutes small-animal positron emission tomography (PET, Philip Mosaic, Andover, Mass.) and micro-computed tomography (CT) (Gamma Medica-Ideas Xspect System, NorthRidge, Calif.) imaging were performed using an acquisition time of 15 min for PET, followed by CT for 5 minutes. Images were reconstructed using 3D-RAMLA algorithm, with no attenuation correction and no correction for partial-volume effects of the tomograph as previously described^31. Quantification was performed by Region-of-interest (ROI) analysis using Amide Research Workplace software and FDG-tissue uptake calculated using the mean value of standard uptake values (SUV) as described (Palanivel R, Diabetologia. 55(11):3083-93 (2012)). […]

HFD-fed C57Bl6 mice [2] = experiment: Metabolic cages and 18FDG-PET/CT of LP533401-treated HFD-fed mice; format: in vivo
Description: as §1
In vivo glucose uptake and body composition: ^18F-Fluorodeoxyglucose (FDG) was synthesized at McMaster University by the nucleophilic substitution method using an FDG synthesizing instrument (GE Healthcare, Milwaukee, Wis., USA) and a cyclotron (Siemans 20-30 gb). After an 8 h fast, mice were injected with insulin (0.5 U/kg) diluted in 0.9% physiological saline and 5 minutes later received an intravenous administration of FDG (10.8±1.2 MBq/g). After injection, the mice were maintained under conscious conditions and warmed using a heating pad. At 28 minutes post saline or insulin injection mice were anaesthetized with isoflorane and at 30 minutes small-animal positron emission tomography (PET, Philip Mosaic, Andover, Mass.) and micro-computed tomography (CT) (Gamma Medica-Ideas Xspect System, NorthRidge, Calif.) imaging were performed using an acquisition time of 15 min for PET, followed by CT for 5 minutes. Images were reconstructed using 3D-RAMLA algorithm, with no attenuation correction and no correction for partial-volume effects of the tomograph as previously described^31. Quantification was performed by Region-of-interest (ROI) analysis using Amide Research Workplace software and FDG-tissue uptake calculated using the mean value of standard uptake values (SUV) as described (Palanivel R, Diabetologia. 55(11):3083-93 (2012)). Analysis of total body fat composition were determined by using Amira software (Visage Imaging) and the mean value of voxels of segmented adipose were calculated and expressed relative to total body mass.
To examine the mechanisms contributing to weight loss in LP533401-treated mice, HFD-fed mice were placed in metabolic cages after 12 days of treatment before any change in body mass was evident in groups (Vehicle: 29.4±0.58 g vs. LP533401:28.9±0.63 g).

[3] = system: HFD-fed Ucp1+/+ and Ucp1-/- mice; experiment: LP533401 in HFD-fed Ucp1+/+ and Ucp1-/- mice at thermoneutrality; format: in vivo
Description: Ucp1 heterozygous mice were acquired from Jackson Laboratories and bred to produce UCP1-null (Ucp1^−/−) and wild-type (Ucp1^+/+) littermates. In order to prevent thermal stress, mice in this colony were bred and housed in a room maintained at 30° C. All testing except for the CL-316,243 challenge occurred at this temperature.
as §1
In order to establish whether the clinical benefits of Tph1 inhibition (weight loss and improvements in insulin sensitivity) are derived from increased thermogenesis mediated by UCP1, daily injections of LP533401 were performed using UCP1-null (Ucp1^−/−) and wild-type littermates (Ucp1^+/+) fed a HFD and housed under thermoneutral conditions (30° C.). […] Thus, the clinical benefits of Tph1 inhibition require UCP1 mediated thermogenesis.

UCP1 = experiment: Ucp1 promoter activity, Ucp1 mRNA and UCP1 protein in brown adipocytes; format: cell-based, mouse
Description: Using RNA-Seq, cultured human brown and beige adipocytes were interrogated for 5-HT receptor mRNA expression. Immortalized murine brown adipocytes (BAs) were treated with or without the selective 5-HT reuptake inhibitor (SSRI), paroxetine (250 nM). Subsequent studies were conducted with and without 5-HT2A agonists (1 pM-10 uM TCB-2, 1 pM-10 uM AL-34662, and 1 pM-10 uM NBOH-2C-CN) and 5-HT2A antagonists (100 fM-100 pM MDL-100907, 100 pM-10 uM xylamidine tosylate, 1 nM ketanserin, 10 nM altanserin, 100 fM-100 pM EMD-281,014, and 100 pM-10 uM sarpogrelate hydrochloride).
BA progenitors were isolated and immortalized from WT and serotonin transporter (SERT; Gene: Slc6a4) KO mice. These cells were then differentiated for 7 days to obtain mature BAs. BAs were then treated with different doses of 5-HT for 4 hours. RNA was isolated and quantified using RT-qPCR with probes specific for Slc6a4, Ucp1 and PPIA.
BA progenitors were isolated from mice expressing a transgene where the luciferase gene is driven by the Ucp1 promoter (i.e. Ucp1-Luc2 mice; a.k.a. ThermoMouse; Jackson Laboratories). Upon 9 days of differentiation, these BAs were treated for 4 hours with different doses of 5-HT. Because in vitro there is not a continuous supply of 5-HT as there is in vivo, cells were treated with paroxetine to inhibit the uptake and consequent degradation of 5-HT, and to observe 5-HT receptor specific effects. These cells were then lysed, incubated with a luciferin assay cocktail, and the light generated quantified on a microplate reader.

5-HT receptor = experiment: Isoproterenol-induced lipolysis (FFA release) in immortalized BAT cells; format: cell-based, mouse; conditions: co-treatment with the antagonist (3 μM), n=2
Description: Briefly, confluent cells were placed in induction media (0.5 mM IBMX; 0.25 mM indomethacin; 2 μg/ml dexamethasone; 1 nM T3, 20 nM insulin) for two days and subsequently maintained on differentiation media (1 nM T3, 20 nM insulin). All experiments were performed on cultures 6-8 days post-induction. Unless otherwise indicated, cells were rinsed with PBS and media was changed to HEPES-buffered Krebs Ringer buffer (HKRB)+1% BSA. Where indicated, BAs were treated with serotonin for 30 min (100 μM; Sigma) followed by isoproterenol (1 nM, Sigma) for 4 h. The serotonin receptor antagonist, methysergide (3 μM) was used 45 min prior treatment with serotonin as above.

[4] = HFD-fed C57Bl6 mice, Tph1 inhibitor 25 mg/kg daily i.p., values ± SEM, n = 7-8

T1 sequence (P35363 whole entry): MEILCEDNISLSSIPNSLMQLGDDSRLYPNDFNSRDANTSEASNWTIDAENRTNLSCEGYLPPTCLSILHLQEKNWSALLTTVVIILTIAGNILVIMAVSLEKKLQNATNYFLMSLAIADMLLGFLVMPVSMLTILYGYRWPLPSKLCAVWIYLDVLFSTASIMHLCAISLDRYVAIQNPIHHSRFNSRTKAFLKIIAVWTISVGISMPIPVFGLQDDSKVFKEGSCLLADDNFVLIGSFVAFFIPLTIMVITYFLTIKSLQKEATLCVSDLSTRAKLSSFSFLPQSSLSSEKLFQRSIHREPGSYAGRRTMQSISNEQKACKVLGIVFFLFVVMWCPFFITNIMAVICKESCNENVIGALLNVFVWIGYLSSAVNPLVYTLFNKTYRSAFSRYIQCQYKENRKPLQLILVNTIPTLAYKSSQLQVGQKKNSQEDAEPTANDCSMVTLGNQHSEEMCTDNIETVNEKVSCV

C[C@H](N)Cn1ncc2ccc(O)cc21 [AL-34662]
Ca2+ levels (5-HT2A): increased

N#Cc1c[nH]c2c(C(=O)N3CCN(CCc4ccc(F)cc4)CC3)cccc12 [EMD-281,014, pruvanserin]
5-HT induced Ca2+ transients (5-HT2A): attenuated

Nc1nc(OC(c2ccc(-c3cccc(F)c3)cc2)C(F)(F)F)cc(-c2ccc(C[C@H](N)C(=O)O)cc2)n1 (stereo partly drawn) [LP533401, (2S)-2-amino-3-(4-(2-amino-6-(2,2,2-trifluoro-1-(3′-fluoro-[1,1′-biphenyl]-4-yl)ethoxy)pyrimidin-4-yl)phenyl)propanoic acid]
accumulation of body fat (HFD-fed C57Bl6 mice [1]; 25 mg/kg i.p., versus vehicle): lower accumulation | circulating serotonin levels (HFD-fed C57Bl6 mice [1]; 25 mg/kg i.p., versus vehicle): reduced | glucose homeostasis (HFD-fed C57Bl6 mice [1]; 25 mg/kg i.p., versus vehicle): improvements | insulin sensitivity (HFD-fed C57Bl6 mice [1]; 25 mg/kg i.p., versus vehicle): increased | liver size (HFD-fed C57Bl6 mice [1]; 25 mg/kg i.p., versus vehicle): reductions | weight gain (HFD-fed C57Bl6 mice [1]; 25 mg/kg i.p., versus vehicle (1-2 grams per week)): suppressed | Tissue weight, Brown Adipose Tissue (HFD-fed C57Bl6 mice [1]; [4]): 153 ± 8.4 mg | Tissue weight, Epididymal Fat Pad (HFD-fed C57Bl6 mice [1]; [4]): 1157 ± 121 mg | Tissue weight, Inguinal Fat Pad (HFD-fed C57Bl6 mice [1]; [4]): 117 ± 16 mg | Tissue weight, Retroperitoneal Fat Pad (HFD-fed C57Bl6 mice [1]; [4]): 265 ± 29.9 mg | FDG uptake in BAT (HFD-fed C57Bl6 mice [2]; 18FDG-PET/CT): increased | FDG uptake into eWAT (HFD-fed C57Bl6 mice [2]; PET, HFD-fed C57Bl6 mice): increased | body mass (HFD-fed C57Bl6 mice [2]; after 12 days of treatment, before any change in body mass): 28.9 ± 0.63 g | oxygen consumption (HFD-fed C57Bl6 mice [2]; dark and light cycles, after 12 days of treatment): increased | browning of eWAT (HFD-fed C57Bl6 mice [2]; macroscopically evident, with marked UCP1 immunostaining): Increased | food intake (HFD-fed C57Bl6 mice [2]; metabolic cages, P>0.05 vs vehicle, n=8): 13.7 ± 0.45 g | activity levels (HFD-fed C57Bl6 mice [2]; metabolic cages, after 12 days of treatment): without altering | expression of UCP1 in BAT (HFD-fed C57Bl6 mice [2]; mouse, in vivo): enhanced | weight gain ([3]; Ucp1+/+ mice, HFD, 30° C.): attenuated weight gain | improvements in glucose tolerance ([3]; Ucp1+/+ versus Ucp1-/- mice): entirely dependent on the expression of UCP1 | oxygen uptake and thermogenesis ([3]; challenged with CL-316,243, only Ucp1+/+ mice): increase

COc1cccc([C@H](O)C2CCN(CCc3ccc(F)cc3)CC2)c1OC [MDL-100907, volinanserin]
5-HT induced Ca2+ transients (5-HT2A): attenuated | 5-HT induced decrease in UCP1 protein levels (UCP1; antagonist plus 5-HT): dose-dependently attenuated

COc1cc(CCNCc2ccccc2O)c(OC)cc1C#N [NBOH-2C-CN]
Ca2+ levels (5-HT2A): increased | Ucp1 mRNA (UCP1; brown adipocytes): inhibited | UCP1 protein levels (UCP1; brown adipocytes, chronic treatment for NBOH-2C-CN): decreased

COc1cccc(CCc2ccccc2OCC(CN(C)C)OC(=O)CCC(=O)O)c1 (centres unmarked) [Sarpogrelate hydrochloride]
5-HT induced Ca2+ transients (5-HT2A): attenuated

COc1cc(Br)c(OC)c2c1[C@H](CN)C2 [TCB-2]
Ca2+ levels (5-HT2A): increased

CC[C@@H](CO)NC(=O)[C@@H]1C=C2c3cccc4c3c(cn4C)C[C@H]2N(C)C1 [methysergide]
effect of serotonin on isoproterenol-induced lipolysis (5-HT receptor): blocked

Fc1ccc([C@@H]2CCNC[C@H]2COc2ccc3c(c2)OCO3)cc1 [paroxetine]
sensitivity of brown adipocytes to inhibition by 5-HT (UCP1; serotonin transporter inhibited with the SSRI): greater sensitivity
